Assay results taken from patent publication US10899747B2, “Biaryl piperidine amide compounds and methods of use thereof” (Athenex, Inc., priority 2017, dated 2021).

Legend:
Format in all cases: cell-based
NFAT = assay: TCR-NFAT (luciferase-based reporter assay); conditions: Homo sapiens; 50% inhibition concentration class
Protocol: Jurkat T cells are transiently transfected with a DNA plasmid encoding Firefly luciferase under the transcriptional control of an appropriate regulatory element that may include multimerized NFAT, AP-1, NFκB, or CREB binding sites. Cells are co-transfected with a DNA plasmid encoding Renilla luciferase under the transcriptional control of a constitutive regulatory element (e.g., HSV-TK promoter). 24 hours following transfection, cells are collected and re-seeded in 96-well plates at a final density of 1.0×10^6 cells/ml in 150 ul assay medium. Test compounds may be included at a final concentration of ≤20 uM and generally pre-incubated with cells for 30 minutes prior to stimulation. An appropriate stimulus is added, including but not limited to, a) phorbol myristate acetate (PMA) and ionomycin, or b) stimulatory antibodies to the TCR complex (e.g., anti-CD3ε) and CD28. Cell cultures are stimulated for 4-6 hours in a humidified incubator (37 degrees C./5% CO2). Cells are than lysed and the level of Firefly luciferase and Renilla Luciferase activity is determined using a standard assay (e.g., Promega's Dual Luciferase Reporter Assay System) and plate-reading luminometer. The ratio obtained by dividing activation induced Firefly luciferase activity by the constitutive Renilla luciferase activity is calculated and used as a quantitative measurement of cell activation.
Jurkat T cells were transiently transfected with a DNA plasmid encoding Firefly luciferase under the transcriptional control of an appropriate regulatory element that may include multimerized NFAT, AP-1, NFκB, or CREB binding sites. Cells were co-transfected with a DNA plasmid encoding Renilla luciferase under the transcriptional control of a constitutive regulatory element (e.g., HSV-TK promoter). 24 hours following transfection, cells were collected and re-seeded in 96-well plates at a final density of 1.0×10^6 cells/ml in 150 ul assay medium. Compound 413 was included at a final concentration of ≤20 uM and pre-incubated with cells for 30 minutes prior to stimulation. Mitogens PMA and ionomycin were added. Cell cultures were stimulated for 4-6 hours in a humidified incubator (37° C./5% CO2). Cells were then lysed and the level of Firefly luciferase and Renilla Luciferase activity was determined using a standard assay (e.g., Promega's Dual Luciferase Reporter Assay System) and plate-reading luminometer. The ratio obtained by dividing activation induced Firefly luciferase activity by the constitutive Renilla luciferase activity was calculated and used as a quantitative measurement of cell activation.

IL-2 [1] = assay: PHA-IL2 (cell activation and cytokine analysis); conditions: 50% inhibition concentration class
Summary of the method: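 Cells were seeded in 96-well plates at 1.0-2.0×10^6 cells/ml in 150 ul of RPMI containing 0.5% fetal calf serum. Test compounds, at up to ≤20 uM, were preincubated with the cells for 30 minutes, then phytohemagglutinin (PHA) was added and cultures were stimulated for 24-48 hours at 37 degrees C./5% CO2. Supernatant IL-2 was then quantified by standard ELISA.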

IL-2 [2] = assay: IL-2 secretion by ELISA in Jurkat T cells stimulated with PMA and ionomycin; conditions: Homo sapiens, supernatants harvested at 20 hours, read-out: concentration required to achieve 50% inhibition (IC50) of IL-2
Protocol: Jurkat (a transformed human T cell leukemia) cells were plated in 96-well plates at a final density of 1.0-2.0×10^6 cells/ml in 150 ul of assay medium (RPMI+0.5% fetal calf serum). Compounds 403 and 413 were included at a final concentration of ≤20 uM and pre-incubated with cells for 30 minutes prior to stimulation. Mitogens PMA and ionomycin were added to the T cell receptor (TCR) complex (e.g., anti-CD3c) and CD28. Cell cultures were stimulated for 24-48 hours in a humidified incubator (37 degrees C./5% CO2). A fraction of the culture supernatant was then harvested from each well and assayed for the presence of appropriate cytokine using standard ELISA. Cytokines analyzed was IL-2. If required, the number of cytokine producing cells can be determined using intracellular staining and flow cytometry.
More specifically, Jurkat T cells were stimulated with the mitogens PMA and ionomycin in the presence of varying concentrations of compound 403 or compound 413. Supernatants were harvested at 20 hours and analyzed for IL-2 content by ELISA. IL-2 values obtained from vehicle (DMSO) treated control wells (˜2800 pg/ml) were assigned a value of 100% and used to calculate the % inhibition achieved for each compound.

IC50 (NFAT) [µM] | IC50 (IL-2 [1]) [nM] | IC50 (IL-2 [2]) [nM] | Structure (SMILES)
1 to 10 | – | – | O=C(COc1ccccc1-c1ccccc1)N1CCC(CCc2cc(F)cc(F)c2)CC1 [Compound 106]
1 to 10 | – | – | COc1ccc(CCC2CCN(C(=O)COc3ccccc3-c3ccccc3)CC2)c(OC)c1 [Compound 119]
10 to 50 | – | – | O=C(COc1ccccc1-c1ccccc1)N1CCC(CCc2ccccc2OC(F)(F)F)CC1 [Compound 122]
10 to 50 | < 1000 | – | O=C(COc1ccccc1-c1ccccc1)N1CCC(CCc2cc(F)c(O)c(F)c2)CC1 [Compound 124]
1 to 10 | – | – | Cc1ccc(F)cc1CCC1CCN(C(=O)COc2ccccc2-c2ccccc2)CC1 [Compound 113]
< 1 | < 1000 | – | COC(=O)c1ccc(CCC2CCN(C(=O)COc3ccccc3-c3ccccc3)CC2)cc1 [Compound 101]
10 to 50 | – | – | O=C(COc1cc(F)c(F)cc1-c1ccccc1)N1CCC(CCc2ccc(F)cc2)CC1 [Compound 137]
10 to 50 | – | – | O=C(COc1ccccc1-c1ccccc1)N1CCC(CCc2cc(F)ccc2F)CC1 [Compound 123]
1 to 10 | 1000 to 10000 | – | O=C(/C=C/c1cc2c(cc1-c1ccccc1)OCO2)N1CCC(CCc2ccc(O)cc2)CC1 [Compound 111]
1 to 10 | – | – | COc1ccc(CCC2CCN(C(=O)C(C)Oc3ccccc3-c3ccccc3)CC2)cc1OC (stereo not drawn) [Compound 144]
10 to 50 | – | – | Cc1cccc(-c2ccccc2)c1OCC(=O)N1CCC(CCc2ccc(F)cc2)CC1 [Compound 140]
10 to 50 | – | – | Cc1cc(OC(F)(F)F)ccc1CCC1CCN(C(=O)COc2ccccc2-c2ccccc2)CC1 [Compound 116]
< 1 | < 1000 | – | O=C(COc1ccccc1-c1ccccc1O)N1CCC(CCc2ccc3c(c2)OCO3)CC1 [Compound 169]
1 to 10 | – | – | O=C(NCc1ccccn1)c1ccc(CCC2CCN(C(=O)COc3ccccc3-c3ccccc3)CC2)cc1 [Compound 102]
10 to 50 | – | – | O=C(CCc1cc2c(cc1-c1ccccc1)OCO2)N1CCC(CCc2ccc(O)cc2)CC1 [Compound 132]
10 to 50 | – | – | COc1ccc(CCC2CCN(C(=O)COc3c(F)cccc3-c3ccccc3)CC2)cc1OC [Compound 133]
10 to 50 | – | – | O=C(COc1c(F)cccc1-c1ccccc1)N1CCC(CCc2cc(F)cc(F)c2)CC1 [Compound 135]
10 to 50 | – | – | O=C(COc1ccccc1-c1ccccc1)N1CCC(CCc2cccc(C(F)(F)F)c2)CC1 [Compound 127]
1 to 10 | – | – | O=C(COc1ccccc1-c1ccccc1)N1CCC(CCc2ccc(N3CCOCC3)cc2)CC1 [Compound 112]
10 to 50 | – | – | O=C(COc1ccccc1-c1ccccc1)N1CCC(CCc2ccc(F)cc2)CC1 [Compound 107]
10 to 50 | 1000 to 10000 | – | COc1ccc(CCC2CCN(C(=O)COc3cccnc3-c3ccccc3)CC2)cc1OC [Compound 141]
10 to 50 | – | – | O=C(COc1ccccc1-c1ccccc1)N1CCC(CCc2cccc(F)c2)CC1 [Compound 130]
10 to 50 | – | – | COc1ccc(CO)cc1CCC1CCN(C(=O)COc2ccccc2-c2ccccc2)CC1 [Compound 125]
1 to 10 | – | – | COc1ccc(CCC2CCN(C(=O)COc3c(C)cccc3-c3ccccc3)CC2)cc1OC [Compound 138]
1 to 10 | – | – | CN(C)C(=O)c1ccc(CCC2CCN(C(=O)COc3ccccc3-c3ccccc3)CC2)cc1 [Compound 147]
1 to 10 | < 1000 | – | O=C(COc1ccccc1-c1ccccc1)N1CCC(CCc2ccc(O)cc2)CC1 [Compound 100]

IC50 (NFAT) [µM] | IC50 (IL-2 [1]) [nM] | IC50 (IL-2 [2]) [nM] | Structure (SMILES)
1 to 10 | < 1000 | – | O=C(COc1ccccc1-c1ccccc1)N1CCC(CCc2ccc3c(c2)OCO3)CC1 [Compound 105]
1 to 10 | – | – | COCc1ccc(CCC2CCN(C(=O)COc3ccccc3-c3ccccc3)CC2)cc1 [Compound 146]
1 to 10 | – | – | COc1ccc(CCC2CCN(C(=O)COc3ccccc3-c3ccccc3)CC2)cc1OC [Compound 109]
10 to 50 | – | – | COc1ccc(CCC2CCN(C(=O)COc3c(F)cccc3-c3ccccc3)CC2)cc1 [Compound 134]
10 to 50 | – | – | O=C(COc1cc(F)ccc1-c1ccccc1)N1CCC(CCc2ccc3c(c2)OCO3)CC1 [Compound 151]
1 to 10 | – | – | CC(C)(C)NC(=O)c1ccc(CCC2CCN(C(=O)COc3ccccc3-c3ccccc3)CC2)cc1 [Compound 149]
10 to 50 | – | – | COc1cccc(CCC2CCN(C(=O)COc3ccccc3-c3ccccc3)CC2)c1 [Compound 128]
1 to 10 | – | – | O=C(COc1ccccc1-c1ccccc1)N1CCC(CCc2ccc(OC(F)(F)F)cc2)CC1 [Compound 115]
1 to 10 | < 1000 | – | O=C(COc1ccccc1-c1ccccc1)N1CCC(CCc2ccc3c(c2)OCCO3)CC1 [Compound 114]
10 to 50 | – | – | O=C(O)c1ccc(CCC2CCN(C(=O)COc3ccccc3-c3ccccc3)CC2)cc1 [Compound 110]
10 to 50 | 1000 to 10000 | – | O=C(COc1ccccc1-c1ccccc1)N1CCC(CCc2ccccc2)CC1 [Compound 118]
10 to 50 | – | – | O=C(COc1ccccc1-c1ccccc1)N1CCC(CCc2cccc(CO)c2)CC1 [Compound 131]
10 to 50 | – | – | COc1ccc(CCC2CCN(C(=O)COc3c(C)cccc3-c3ccccc3)CC2)cc1 [Compound 139]
10 to 50 | – | – | O=C(COc1ccccc1-c1ccccc1)N1CCC(CCc2ccc(F)c(C(F)(F)F)c2)CC1 [Compound 121]
10 to 50 | – | – | CCOc1ccc(CCC2CCN(C(=O)COc3ccccc3-c3ccccc3)CC2)cc1 [Compound 129]
1 to 10 | – | – | CCCC(Oc1ccccc1-c1ccccc1)C(=O)N1CCC(CCc2ccc(OC)c(OC)c2)CC1 (stereo not drawn) [Compound 145]
10 to 50 | – | – | O=C(COc1ccc(F)cc1-c1ccccc1)N1CCC(CCc2ccc3c(c2)OCO3)CC1 [Compound 152]
1 to 10 | – | – | COc1ccc(CCC2CCN(C(=O)COc3cc(F)c(F)cc3-c3ccccc3)CC2)cc1OC [Compound 142]
1 to 10 | – | – | COc1ccc(CCC2CCN(C(=O)COc3ccccc3-c3ccccc3)CC2)cc1 [Compound 108]
10 to 50 | – | – | O=C(COc1cc(OC(F)(F)F)ccc1-c1ccccc1)N1CCC(CCc2ccc3c(c2)OCO3)CC1 [Compound 150]
1 to 10 | – | – | O=C(NCc1ccncc1)c1ccc(CCC2CCN(C(=O)COc3ccccc3-c3ccccc3)CC2)cc1 [Compound 104]
1 to 10 | – | – | O=C(NCc1cccnc1)c1ccc(CCC2CCN(C(=O)COc3ccccc3-c3ccccc3)CC2)cc1 [Compound 103]
– | < 1000 | 68 | CC(C)Oc1cccc(CCC2CCN(C(=O)COc3ccccc3-c3ccc(C#N)cc3)CC2)c1 [Compound 403]
10 to 50 | – | – | O=C(COc1c(F)cccc1-c1ccccc1)N1CCC(CCc2ccc(F)cc2)CC1 [Compound 136]
10 to 50 | – | – | O=C(COc1cc(F)c(F)cc1-c1ccccc1)N1CCC(CCc2cc(F)cc(F)c2)CC1 [Compound 143]
1 to 10 | 1000 to 10000 | – | CC(C)NC(=O)c1ccc(CCC2CCN(C(=O)COc3ccccc3-c3ccccc3)CC2)cc1 [Compound 148]
